Laboratory results published in patent US12297482B2, “Rapid cell culture test device designed such that fluid films with uniform thickness are formed” (priority 2020, dated 2025).

Assays:
[1] = system: P. aeruginosa ATCC 27853; test: Antibiotic susceptibility testing using the cell culture test device (DRAST), time-lapse colony observation; conditions: reference strain, observed until 6 h
[2] = system: Enterobacter cloacae; test: Susceptibility testing of blood-sample strain by broth microdilution (BMD); assay type: cell-based; parameters: key: susceptible (S); intermediate resistance (I); resistance (R); conditions: BMD testing method, strain from blood sample
Description: The tests were conducted on various drugs that are currently used in testing organizations. […] Accordingly, these test results are all classified as minor errors of the first step judgement.

[3] = system: Enterobacter cloacae; test: Susceptibility testing of blood-sample strain using the cell culture test device (DRAST); assay type: cell-based; parameters: key: susceptible (S); intermediate resistance (I); resistance (R); conditions: strain from blood sample
Text: (§1) The liquid medium usually […].

[4] = system: Enterococcus faecium; test: Susceptibility testing of blood-sample strain by broth microdilution (BMD); assay type: cell-based; parameters: key: susceptible (S); intermediate resistance (I); resistance (R); conditions: BMD testing method, strain from blood sample
Description: The tests were conducted on various drugs that are currently used in testing organizations. […] Staphylococcus aureus, Staphylococcus epidermidis, Enterococcus faecalis, and Enterococcus faecium were detected in four blood samples. The test results on S. aureus and S. epidermidis in the BMD testing method were in good agreement with those in the testing method using the cell culture test device (DRAST) of the present disclosure.
Accordingly, these test results are all classified as minor errors of the first step judgement. […] The concentrations shown in FIG. 16 are expressed in μg/mL.

[5] = system: Enterococcus faecium; test: Susceptibility testing of blood-sample strain using the cell culture test device (DRAST); assay type: cell-based; parameters: key: susceptible (S); intermediate resistance (I); resistance (R); conditions: strain from blood sample
Text: as §1
For example, the biological agent may be a culture of blood collected from a human infected with bacteria, i.e. a culture of blood positive for bacterial infection. In this case, a liquid medium stimulating the division of only the bacterial cells can be used to distinguish the bacterial cells from the blood cells based on their different sizes. The biological agent positive for bacterial infection may be collected and diluted with the gelling agent-containing liquid medium. Thus, there is no need to separate the bacteria from the blood sample, shortening the test time.

[6] = system: E. faecalis ATCC 29212; test: Antibiotic susceptibility testing using the cell culture test device (DRAST), time-lapse colony observation; conditions: reference strain, observed until 6 h
[7] = system: S. aureus ATCC 29213; test: as above; conditions: reference strain, observed until 6 h

## C[C@H]1[C@H](NC(=O)/C(=N\OC(C)(C)C(=O)O)c2csc(N)n2)C(=O)N1S(=O)(=O)O [aztreonam]
[1]
  MIC of the antibiotic against P. aeruginosa ATCC 27853: 8.0 mg/L

## C[C@@H](O)[C@H]1C(=O)N2C(C(=O)O)=C(S[C@@H]3CN[C@H](C(=O)Nc4cccc(C(=O)O)c4)C3)[C@H](C)[C@H]12 [ertapenem]
[2]
  susceptibility category (S/I/R) of E. cloacae: R
[3]
  susceptibility category (S/I/R) of E. cloacae: I

## CC(=O)NC[C@H]1CN(c2ccc(N3CCOCC3)c(F)c2)C(=O)O1 [linezolid]
[4]
  susceptibility category (S/I/R) of E. faecium: R
[5]
  susceptibility category (S/I/R) of E. faecium: I

## gentamicin
[6]
  MIC of the antibiotic against E. faecalis ATCC 29212: 8.0 mg/L

## penicillin
[7]
  MIC of the antibiotic against S. aureus ATCC 29213: 1.0 mg/L
